From US20260263617A1, “DARATUMUMAB DRUG CONJUGATES AND PREPARATION THEREOF” (ZYDUS LIFESCIENCES LIMITED, priority 2023, published 2026)
Like-named read-outs stand apart in the source and are kept apart here.

Experiments:
[1] = test system: Daudi (ATCC CCL-213, B Lymphoblast) cells; experiment: In-vitro cytotoxicity assay using Daudi cells (alamar blue); type: cell-based
Protocol: Daudi (ATCC CCL-213, B Lymphoblast) cells were seeded on a 96 well black clear bottom plate (Costar 3603). The cell line was chosen as it is known to express the CD38 receptor. The cells were treated with different concentrations of daratumumab-MMAE conjugation and Darzalex, incubated in CO2 incubator for 2 hours. After incubation the excess or unbound Daratumumab-MMAE was removed, fresh media was added and incubated for 4 days in 5% CO2 at 37° C. At the end of incubation, alamar blue dye (invitrogen, DAL-1100) was added to the cells and incubated for 5 hours in CO2 incubator.

[2] = test system: Daudi Burkitt lymphoma xenograft; experiment: Efficacy in Burkitt lymphoma xenograft disease model in SCID mice; type: in vivo; conditions: 5 mg/kg, I.V. route, single administration; dosed at mean tumor volume approximately 20-25 mm3; FIG. 4
Protocol: In present study, the therapeutic potential of novel Daratumumab-ADC has been evaluated in comparison to Daratumumab antibody only. Specifically to induce Burkitt lymphoma xenograft, Immunodeficient SCID mice were injected with Daudi cells (1 million cells/animal/200 μL volume, In 1:1 ratio of cell suspension & matrigel) in right flank region of animals. […] Here, in this study, Daratumumab-ADC & Daratumumab were compared head to head at a dose level of 5 mg/kg (I.V. route, Single administration).

Substance	in vitro activity (cytotoxicity, viable cells by alamar blue fluorescence) [1]	effect on tumor progression / tumor burden [2]	in vitro activity (cytotoxicity, viable cells by alamar blue fluorescence) ([1]; Daudi cells expressing CD38, 2 hours treatment, unbound removed, 4 days incubation, no effector cells)	relative in vitro activity compared with Darzalex ([1]; Daudi cells, FIG. 3)
Daratumumab: immunoglobulin G1 kappa (IgG1κ) human monoclonal antibody against CD38 antigen [reference compound]	does not show activity without effector functions	able to delay the tumor progression in comparison to placebo control group but not able to regress the tumor burden	–	–
daratumumab-MMAE conjugate: daratumumab as an antibody, mc-vc-PABC as a linker and MMAE as a toxin or drug or payload; average DAR about 4	–	able to regress the tumor burden	shows good in vitro activity without the requirement of effector cell mediated killing	better than Darzalex
